Test results as given in patent US20080171783A1, “COMPOSITIONS AND METHODS FOR TREATING HYPERPROLIFERATIVE DISEASE” (Migenix Inc., priority 2006, published 2008).
Where two headings read alike, the source gives them in different places.

What was measured:
Calf polymerase alpha = biological target: T1, Calf polymerase alpha (Bos taurus, UniProt A0AAA9TD94); experiment: Calf polymerase alpha inhibition (Replizyme kit); assay type: biochemical; conditions: at 10 μM, single point screening
T1 construct: purchased Replizyme Ltd (Heslington, York, UK)
T1 sequence (A0AAA9TD94 1-1441): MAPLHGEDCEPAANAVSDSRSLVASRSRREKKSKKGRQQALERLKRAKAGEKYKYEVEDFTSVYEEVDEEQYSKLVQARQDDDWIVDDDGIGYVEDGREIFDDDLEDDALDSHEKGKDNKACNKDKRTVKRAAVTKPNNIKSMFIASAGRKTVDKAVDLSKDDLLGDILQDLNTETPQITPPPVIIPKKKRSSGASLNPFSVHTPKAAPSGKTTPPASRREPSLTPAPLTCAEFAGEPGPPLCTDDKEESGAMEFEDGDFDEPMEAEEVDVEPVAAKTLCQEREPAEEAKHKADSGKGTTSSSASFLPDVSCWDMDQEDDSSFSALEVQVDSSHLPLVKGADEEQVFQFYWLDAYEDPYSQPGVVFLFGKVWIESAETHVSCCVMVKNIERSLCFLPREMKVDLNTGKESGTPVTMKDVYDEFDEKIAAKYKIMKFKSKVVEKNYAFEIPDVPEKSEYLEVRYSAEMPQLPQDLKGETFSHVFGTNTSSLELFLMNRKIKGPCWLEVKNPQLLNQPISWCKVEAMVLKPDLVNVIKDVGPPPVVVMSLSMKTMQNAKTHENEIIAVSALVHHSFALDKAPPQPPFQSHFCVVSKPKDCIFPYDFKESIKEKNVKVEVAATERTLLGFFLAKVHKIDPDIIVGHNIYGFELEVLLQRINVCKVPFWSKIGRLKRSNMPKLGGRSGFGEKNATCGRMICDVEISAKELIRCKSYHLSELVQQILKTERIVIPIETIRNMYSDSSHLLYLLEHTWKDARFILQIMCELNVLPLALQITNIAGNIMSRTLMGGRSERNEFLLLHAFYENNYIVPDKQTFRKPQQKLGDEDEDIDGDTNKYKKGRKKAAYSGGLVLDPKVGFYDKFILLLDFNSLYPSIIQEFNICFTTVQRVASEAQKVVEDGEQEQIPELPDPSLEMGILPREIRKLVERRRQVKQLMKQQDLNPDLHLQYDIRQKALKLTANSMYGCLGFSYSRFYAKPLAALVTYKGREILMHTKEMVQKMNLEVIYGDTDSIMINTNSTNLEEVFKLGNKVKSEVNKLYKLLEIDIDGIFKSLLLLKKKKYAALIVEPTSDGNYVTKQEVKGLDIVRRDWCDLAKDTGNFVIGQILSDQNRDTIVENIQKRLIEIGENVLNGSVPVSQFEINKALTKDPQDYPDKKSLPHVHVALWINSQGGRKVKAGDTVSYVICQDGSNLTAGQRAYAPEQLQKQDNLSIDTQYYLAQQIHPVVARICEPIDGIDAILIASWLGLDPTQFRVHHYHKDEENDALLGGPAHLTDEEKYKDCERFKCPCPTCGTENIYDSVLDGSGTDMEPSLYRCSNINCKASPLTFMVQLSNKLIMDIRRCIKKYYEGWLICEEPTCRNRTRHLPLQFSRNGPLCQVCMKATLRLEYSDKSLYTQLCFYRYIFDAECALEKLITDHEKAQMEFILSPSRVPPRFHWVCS
Description: Calf polymerase alpha and human polymerase alpha investigations were performed with a kit available from Replizyme Ltd (Heslington, York, UK).

Caco-2 = experiment: Cell viability by XTT; conditions: for Percentage of Cell Control: Caco-2, single dose 10 μM, four days
Description: (§1) Compounds were solubilized at […] in DMSO and were stored at −20° C. Test compounds were initially tested at a single concentration of 10 μM and a subset of test compounds were further tested in selected cell lines using a six concentration dose response curve.
(§2) Cell Preparation Cancer cell lines were passaged in T-75 flasks prior to use in the assay in cell culture medium recommended by the ATCC (American Type Culture Collection; Table 6). On the day preceding the assay, the cells were split 1:2 to assure they were in an exponential growth phase at the time of compound treatment. Total cell and viability quantification was performed using a hemocytometer and Trypan Blue dye exclusion. […] The cells were resuspended at the appropriate cell per mL (Table 6) in tissue culture medium and added to the microtitre plates in a volume of 100 μL. Colon cell lines were incubated overnight at 37° C./5% CO2 to allow for cell adherence to the plates.
(§3) Plate Format: Each plate contains cell control wells (cells only), drug calorimetric control wells (drug only) as well as experimental wells (drug plus cells). Samples were tested in triplicate at a concentration of 10 μM and five half-logarithmic dilutions.
(§4) Cell Viability by XTT: Following incubation at 37° C. in a 5% CO2 incubator for four days, the test plates were stained with the tetrazolium dye XTT (2,3-bis(2-methoxy-4-nitro-5-sulfophenyl)-5-[(phenylamino)carbonyl]-2H-tetrazolium hydroxide). XTT-tetrazolium was metabolized by the mitochondrial enzymes of metabolically active cells to a soluble formazan product. XTT solution was prepared daily as a stock of 1 mg/mL in RPMI1640. Phenazine methosulfate (PMS) solution was prepared at 0.15 mg/mL in phosphate buffered saline (PBS) and stored in the dark at −20° C. XTT/PMS stock was prepared immediately before use by adding 40 μL of PMS per mL of XTT solution. Fifty (50) microlitres of XTT/PMS was added to each well of the plate and the plate was reincubated for 4 hours at 37° C. Plates were sealed with adhesive plate sealers and shaken gently or inverted several times to mix the soluble formazan product and the plate was read spectrophotometrically at 450/650 nm with a Molecular Devices Vmax plate reader. […] An Average Response Factor (ARF) was calculated for each compound by averaging the ten Percentage of Control values for the cell lines. […] Deviations below 100% control indicate activity. The concentration of each tested compound is 10 μM.

THP-1 = experiment: Cell viability by XTT; conditions: for Percentage of Cell Control: THP-1, single dose 10 μM, four days
Description: as §1, §2, §3, §4

Jurkat = experiment: Cell viability by XTT; conditions: for Percentage of Cell Control: single dose 10 μM, four days
Description: as §1, §2, §3, §4

HCT-15 = experiment: Cell viability by XTT; assay type: cell-based; conditions: HCT-15, single dose 10 μM, four days
Description: as §1, §2, §3, §4

HL-60 = experiment: Cell viability by XTT; assay type: cell-based; conditions: HL-60, single dose 10 μM, four days
Description: as §1, §2, §3, §4

[1] = test system: 5 Leukemia and 5 Colon Cancer Cell Lines; experiment: Cell viability by XTT, cell line panel; assay type: cell-based; conditions: for ARF (Average Response Factor, Average Percentage of Control) / Range (Percentage of Control over the same 10 cell lines): 10 μM; for Range (Percentage of Control over the same 10 cell lines): lowest to highest of the ten cell lines
Description: as §1, §2, §3, §4

HT29 = experiment: cells; conditions: for Percentage of Cell Control: HT29, single dose 10 μM, four days
Description: as §1, §2, §3, §4

[2] = read-out: Activity (TC50), Caco-2, six concentration dose response, Table 9
[3] = average of the ten Percentage of Control values

Structure (SMILES) | % Inhibition (Calf polymerase alpha) [%] | Percentage of Cell Control (Caco-2) [%] | CC50 (Caco-2; [2]) [µM] | Percentage of Cell Control (THP-1) [%] | Percentage of Cell Control (Jurkat) [%] | Percentage of Cell Control (HCT-15) [%] | Percentage of Cell Control (HL-60) [%] | ARF (Average Response Factor, Average Percentage of Control) [1, 3] [%] | Range (Percentage of Control over the same 10 cell lines) [1] [%] | Percentage of Cell Control (HT29) [%] | inhibition at 10 µM (Calf polymerase alpha) [%] | CC50 (Caco-2; Homo sapiens, Caco-2, read-out: Activity (TC50)) [µM] | CC50 (THP-1; Homo sapiens, THP-1, read-out: Activity (TC50)) [µM] | CC50 (Jurkat; Homo sapiens, read-out: Activity (TC50)) [µM] | viability at 10 µM ([1]; average of the ten Percentage of Control values, read-out: ARF (Average Response Factor, Average Percentage of Control)) [%] | CC50 (HT29; Homo sapiens, HT-29, read-out: Activity (TC50)) [µM] | CC50 (THP-1; read-out: Activity (TC50), THP-1, six concentration dose response, Table 9) [µM] | CC50 (Jurkat; read-out: Activity (TC50), six concentration dose response, Table 9) [µM]
Cc1ccc(NC(=O)[C@H](CCCCN)NC(=O)Cc2ccc(-c3ccccc3)cc2)cc1 [Compound 50, (S)-6-AMINO-2-(2-BIPHENYL-4-YL-ACETYLAMINO)-HEXANOIC ACID P-TOLYLAMIDE] | 71 | 8.3 | 9.4 | 89.7 | 4.6 | 114.3 | 91.7 | 77.7 | 4.6 to 122 | 27.7 |  |  |  |  |  |  |  | 
NCCCC[C@H](NC(=O)OCC1c2ccccc2-c2ccccc21)C(=O)Nc1ccc(OCc2ccccc2)c(Cl)c1 [Compound 210, (S)-[5-AMINO-1-(4-BENZYLOXY-3-CHLORO-PHENYLCARBAMOYL)-PENTYL]-CARBAMIC ACID 9H-FLUOREN-9-YLMETHYL ESTER] |  | 2.4 |  | 0 | 9.3 | 71.8 | 0.4 |  | 0 to 94.0 | 0 | 104 | 10 | 7.7 | 5.4 | 41.1 | 9.8 |  | 
Cc1ccc(NC(=O)[C@H](CCCCN)NCc2ccc(NC(=O)Nc3ccncc3)cc2)cc1 [Compound 262, (S)-6-AMINO-2-[4-(3-PYRIDIN-4-YL-UREIDO)-BENZYLAMINO]-HEXANOIC ACID P-TOLYLAMIDE] | 102 | 21.6 | 8.7 | 49.4 | 3.1 | 75 | 53.1 | 69.4 | 3.1 to 121.1 | 63.8 |  |  |  |  |  |  | 7.9 | 5.5
